Patent publication US5377676A, “Method for determining the biodistribution of substances using fluorescence spectroscopy” (Cedars-Sinai Medical Center, priority 1993, dated 1995)

Assays:
[1] = BPD-MA biodistribution by LIFS, Study #1; parameters: species or system male Lobund-Wistar rats; details: rat, in vivo, iv, 0.5 mg/kg
[2] = parameters: species or system male Lobund-Wistar rats; details: rat, in vivo, iv, 0.75 mg/kg
Text: (§1) The experimental arrangement used to measure the fluorescence spectra during abdominal exploration included a Helium-cadmium laser (Omnichrome, Chino, Calif.) operating at 442 nm as an excitation source. A 400 micron core diameter fiber was directed at the tissue in contact mode producing a low power (17 mW) illumination. Using the same fiber, reflected and emitted light was returned to the input of a SPEX 500 spectrometer (1422 G EG&G).
(§2) Laser output was reflected at a right angle by a dichroic mirror (HR/442 nm-H7>500 nm, CVI, New Mexico) and was focused at the input of a 400 micron core diameter fiberoptic probe. The excitation output of the laser at the distal end of the fiber was 17 mW. Fluorescence was collected using the same fiber and was transmitted through the dichroic beamsplitter and guided via a fiber bundle to a 0.5 spectrograph (100 g/mm diffraction grating with a split width of 50 microns). The light was then imaged at the modified output port. A 1024 element linear diode array detector (EG&G 1422G) was attached to the exit port, and the signal was directed to a multichannel intensifier. A longpass glass filter (Schott GG475) was used to exclude the excitation light from the detector and conversions were made by an analog to digital converter and automatically stored by a computer. […] Background spectra were recorded before excitation and subtracted from the resulting data. The detection system, including the detector attenuation filter, lenses and spectrograph, was not altered or corrected for a uniform spectral response.
(§3) Spectra from the surfaces of tumor (T), skin (S), muscle (M), liver (L), kidney (K), spleen (Sp), stomach (St), small bowel (SB) and large bowel (LB) were acquired and analyzed by the OMA. […] (FIG. 1 is a schematic representation of this experimental arrangement.) A series of spectra for Photofrin and BPD-MA were recorded from photosensitized animals. (FIGS. 2 and 3). The fluorescence intensities at 540 nm (auto-fluorescence) and 630 nm (Photofrin) or 690 nm (BPD-MA) were simultaneously monitored at three sites for each organ. By using the ratio of these intensities, (I630 nm /I540 nm) or (I690 nm /540 nm), a relative value could be assigned to each area studied. In addition, this intensity ratio eliminated any geometric factor (fiber position) influence in the calibration, as well as calibration errors. The corresponding intensity ratios were used as an index for drug presence in the various tissues.
(§4) The fluorescence emitted from cancerous and normal tissues of male Lobund-Wistar rats was investigated (Lobund Laboratory, Notre Dame University, Id.). All tumors were subcutaneously implanted by inoculating 10^5 viable cells of Pollard rat prostatic adenocarcinoma (PA-III) into the right flank of each animal. This tumor model was selected because it is known to metastasize uniformly and spontaneously from extravascular sites only through ipsilateral lymphatic channels. Because of this tumor's unique, predictable spread, the contralateral side of the animal could be used as a control. In addition, cancer detection is facilitated with this model because rats with PA-III cells survive beyond forty days after implantation without evidence of physical impairment.
(§5) Two separate experiments were performed to assess the biodistribution of BPD-MA. The first study involved 21 animals and two doses of BPD-MA, 0.25 mg/kg and 0.50 mg/kg, to determine the concentration effect of BPD-MA in various tissues. The second study involved 81 animals and 0.75 mg/kg of BPD-MA to determine the biodistribution of BPD-MA and the sensitivity and specificity of LIFS biodistribution measurements.
BPD-MA (QLT Phototherapeutics, Inc., Vancouver, Canada) was administered intravenously in a dose of 0.75 mg/kg to 81 animals 4 hours prior to surgical exploration.
As in Study #1, the animals were anesthetized with Ketamine 40 mg/kg and Xylazine 5.0 mg/kg intraperitoneally, and the abdomens opened through a midline incision. […]

[3] = in vivo; cited from earlier work
[4] = BPD-MA biodistribution by LIFS, Study #1; assay type: in vivo, male Lobund-Wistar rats; details: for I(690 nm)/I(540 nm), kidney / I(690 nm)/I(540 nm), large bowel / I(690 nm)/I(540 nm), liver / I(690 nm)/I(540 nm), mesenteric lymph nodes (MCLN) / I(690 nm)/I(540 nm), metast. L. node / I(690 nm)/I(540 nm), muscle / I(690 nm)/I(540 nm), non-met L. node / I(690 nm)/I(540 nm), skin / I(690 nm)/I(540 nm), small bowel: mean ± SD
Text: as §1, §2, §3, §4, §5
BPD-MA (QLT Phototherapeutics, Inc., Vancouver, Canada) was administered to 21 animals intravenously. The animals were divided into three groups of seven animals each and injected with two different doses of BPD-MA, 0.25 mg/kg (n=7) and 0.50 mg/kg (n=7) 4-6 hours prior to surgical exploration. Seven animals served as a control. […]

[5] = after excitation by blue light; cited from earlier work
[6] = Photofrin biodistribution by laser induced fluorescence spectroscopy (LIFS); assay type: in vivo, male Lobund-Wistar rats
Text: as §1, §2, §3, §4
After forty-two days of observation, Photofrin (QLT Phototherapeutics, Inc., Vancouver, Canada) was administered intraperitoneally to forty-one animals 24-48 hours prior to surgical exploration in doses ranging from 0.25-7.5 mg/kg. Six animals were injected 24 hours prior to surgical exploration with 0.75 mg/kg of Photofrin. Thirty animals were injected with six different concentrations of Photofrin 48 hours prior to surgical exploration (7.5 mg/kg (n=5), 2.5 mg/kg (n=4), 1.5 mg/kg (n=3), 0.75 mg/kg (n=11), 0.50 mg/kg (n=4), and 0.25 mg/kg (n=3)). Five animals which had not been inoculated with PA-III were injected with 0.75 mg/kg 48 hours prior to surgical exploration, and served as a control. […]

[7] = Absorption / fluorescence of the photosensitizer; assay type: physicochemical; details: 442 nm excitation
Text: as §1
Laser output was reflected at a right angle by a dichroic mirror (HR/442 nm-H7>500 nm, CVI, New Mexico) and was focused at the input of a 400 micron core diameter fiberoptic probe. The excitation output of the laser at the distal end of the fiber was 17 mW. Fluorescence was collected using the same fiber and was transmitted through the dichroic beamsplitter and guided via a fiber bundle to a 0.5 spectrograph (100 g/mm diffraction grating with a split width of 50 microns). […] Background spectra were recorded before excitation and subtracted from the resulting data. […]
Spectra from the surfaces of tumor (T), skin (S), muscle (M), liver (L), kidney (K), spleen (Sp), stomach (St), small bowel (SB) and large bowel (LB) were acquired and analyzed by the OMA. […] (FIG. 1 is a schematic representation of this experimental arrangement.) A series of spectra for Photofrin and BPD-MA were recorded from photosensitized animals. […]

[8] = 1.5 mg/kg i.p., 48 h, PA-III rats, mean ± SD
[9] = 2.5 mg/kg i.p., 48 h, PA-III rats, mean ± SD
[10] = 7.5 mg/kg i.p., 48 h, PA-III rats, mean ± SD

Substance: Benzoporphyrin derivative monoacid-A [BPD-MA]
- Fluorescence intensity ratio (I630 nm/I540 nm), metastatic tissue [1]: 6.73 ± 2.39
- Fluorescence intensity ratio mean, Left Iliac LN (LILN) [2]: 5.22
- Fluorescence intensity ratio mean, Mesenteric I LN (MC I) [2]: 2.45
- Fluorescence intensity ratio mean, Mesenteric II LN (MC II) [2]: 2.37
- Fluorescence intensity ratio mean, Right Iliac LN (RILN) [2]: 5.86
- Fluorescence intensity ratio mean, Right Inguinal LN (RIN) [2]: 4.72
- Fluorescence intensity ratio mean, Right Para-Aortic LN (RPAR) [2]: 7.40
- Fluorescence intensity ratio mean, Right Sub-Renalis LN (RSBR) [2]: 4.50
- Fluorescence intensity ratio mean, Right Supra-Renalis LN (RSPR) [2]: 4.26
- Fluorescence intensity ratio mean, inflammatory LN [2]: 3.67
- Fluorescence intensity ratio mean, metastatic LN [2]: 6.26
- Fluorescence intensity ratio mean, normal LN [2]: 3.06
- Photosensitivity of the skin [3]: dramatically decreased photosensitivity of the skin
- I(690 nm)/I(540 nm), kidney ([4]; 4 Hours, 0.25 mg/kg i.v.): 1.04 ± 0.40
- I(690 nm)/I(540 nm), large bowel ([4]; 4 Hours, 0.25 mg/kg i.v.): 1.27 ± 0.30
- I(690 nm)/I(540 nm), liver ([4]; 4 Hours, 0.25 mg/kg i.v.): 7.83 ± 3.69
- I(690 nm)/I(540 nm), mesenteric lymph nodes (MCLN) ([4]; 4 Hours, 0.25 mg/kg i.v.): 1.40 ± 0.27
- I(690 nm)/I(540 nm), metast. L. node ([4]; 4 Hours, 0.25 mg/kg i.v.): 3.19 ± 2.31
- I(690 nm)/I(540 nm), muscle ([4]; 4 Hours, 0.25 mg/kg i.v.): 1.73 ± 0.47
- I(690 nm)/I(540 nm), non-met L. node ([4]; 4 Hours, 0.25 mg/kg i.v.): 3.55 ± 1.77
- I(690 nm)/I(540 nm), skin ([4]; 4 Hours, 0.25 mg/kg i.v.): 0.31 ± 0.12
- I(690 nm)/I(540 nm), small bowel ([4]; 4 Hours, 0.25 mg/kg i.v.): 7.63 ± 2.73
- I(690 nm)/I(540 nm), kidney ([4]; 4 Hours, 0.50 mg/kg i.v.): 1.57 ± 0.32
- I(690 nm)/I(540 nm), large bowel ([4]; 4 Hours, 0.50 mg/kg i.v.): 1.59 ± 0.45
- I(690 nm)/I(540 nm), liver ([4]; 4 Hours, 0.50 mg/kg i.v.): 15.74 ± 9.25
- I(690 nm)/I(540 nm), mesenteric lymph nodes (MCLN) ([4]; 4 Hours, 0.50 mg/kg i.v.): 3.12 ± 0.99
- I(690 nm)/I(540 nm), metast. L. node ([4]; 4 Hours, 0.50 mg/kg i.v.): 6.73 ± 2.39
- I(690 nm)/I(540 nm), muscle ([4]; 4 Hours, 0.50 mg/kg i.v.): 1.62 ± 0.82
- I(690 nm)/I(540 nm), non-met L. node ([4]; 4 Hours, 0.50 mg/kg i.v.): 2.65 ± 0.62
- I(690 nm)/I(540 nm), skin ([4]; 4 Hours, 0.50 mg/kg i.v.): 0.50 ± 0.17
- I(690 nm)/I(540 nm), small bowel ([4]; 4 Hours, 0.50 mg/kg i.v.): 9.91 ± 5.08
- I(690 nm)/I(540 nm), kidney ([4]; 6 Hours, 0.25 mg/kg i.v.): 0.78 ± 0.19
- I(690 nm)/I(540 nm), large bowel ([4]; 6 Hours, 0.25 mg/kg i.v.): 2.37 ± 1.48
- I(690 nm)/I(540 nm), liver ([4]; 6 Hours, 0.25 mg/kg i.v.): 5.20 ± 2.38
- I(690 nm)/I(540 nm), mesenteric lymph nodes (MCLN) ([4]; 6 Hours, 0.25 mg/kg i.v.): 1.43 ± 0.67
- I(690 nm)/I(540 nm), metast. L. node ([4]; 6 Hours, 0.25 mg/kg i.v.): 3.70 ± 2.82
- I(690 nm)/I(540 nm), muscle ([4]; 6 Hours, 0.25 mg/kg i.v.): 0.78 ± 0.26
- I(690 nm)/I(540 nm), non-met L. node ([4]; 6 Hours, 0.25 mg/kg i.v.): 2.77 ± 2.25
- I(690 nm)/I(540 nm), skin ([4]; 6 Hours, 0.25 mg/kg i.v.): 0.30 ± 0.15
- I(690 nm)/I(540 nm), small bowel ([4]; 6 Hours, 0.25 mg/kg i.v.): 4.98 ± 2.83
- BPD-MA retention in organs with time ([4]; rat, in vivo, iv): BPD-MA retention in all organs decreased with time
- Fluorescence intensity ratio (I630 nm/I540 nm), non-metastatic tissue ([4]; rat, in vivo, iv, 0.5 mg/kg): 2.65 ± 0.62
- I(690 nm)/I(540 nm), spleen ([4]; rat, in vivo, iv, 0.5 mg/kg): 1.57 ± 0.31
- I(690 nm)/I(540 nm), stomach ([4]; rat, in vivo, iv, 0.5 mg/kg): 2.95 ± 1.10
- I(690 nm)/I(540 nm), tumor ([4]; rat, in vivo, iv, 0.5 mg/kg): 3.44 ± 1.14
- Characteristic red fluorescence peak [5]: approximately 690 nm

Substance: Photofrin
- Fluorescence intensity ratio (I630 nm/I540 nm), skin [6, 8]: 0.23 ± 0.06
- Fluorescence intensity ratio (I630 nm/I540 nm), small bowel [6, 8]: 0.56 ± 0.08
- Fluorescence intensity ratio (I630 nm/I540 nm), spleen [6, 8]: 1.25 ± 0.35
- Fluorescence intensity ratio (I630 nm/I540 nm), stomach [6, 8]: 0.92 ± 0.12
- Fluorescence intensity ratio (I630 nm/I540 nm), tumor [6, 8]: 0.36 ± 0.01
- Fluorescence intensity ratio (I630 nm/I540 nm), non metas L. node [6, 9]: 1.75 ± 1.06
- Fluorescence intensity ratio (I630 nm/I540 nm), skin [6, 9]: 0.22 ± 0.04
- Fluorescence intensity ratio (I630 nm/I540 nm), small bowel [6, 9]: 0.57 ± 0.30
- Fluorescence intensity ratio (I630 nm/I540 nm), spleen [6, 9]: 0.72 ± 0.25
- Fluorescence intensity ratio (I630 nm/I540 nm), stomach [6, 9]: 0.26 ± 0.01
- Fluorescence intensity ratio (I630 nm/I540 nm), tumor [6, 9]: 0.70 ± 0.43
- Fluorescence intensity ratio (I630 nm/I540 nm), skin [6, 10]: 0.25 ± 0.04
- Fluorescence intensity ratio (I630 nm/I540 nm), small bowel [6, 10]: 0.96 ± 0.33
- Fluorescence intensity ratio (I630 nm/I540 nm), spleen [6, 10]: 1.56 ± 0.68
- Fluorescence intensity ratio (I630 nm/I540 nm), stomach [6, 10]: 0.62 ± 0.24
- Fluorescence intensity ratio (I630 nm/I540 nm), tumor [6, 10]: 2.45 ± 1.00
- Dose at which metastatic and non-metastatic lymph nodes are distinguished (selectivity) ([6]; rat, in vivo, 2880 min): higher than 0.25 mg/kg
- Characteristic fluorescence peak [7]: ~ 630 nm
